According to patent US9567306B2, “Inhibition of macrophage migration inhibitory factor in melanoma and colon cancer” (THE FEINSTEIN INSTITUTE FOR MEDICAL RESEARCH, priority 2014, dated 2017):
“Also recorded” adds a separate entry of the source.

Key:
[1] = molecular target: T1, MIF (Homo sapiens, UniProt P14174); assay: MIF tautomerase inhibition assay (L-dopachrome methyl ester); assay type: biochemical
T1 sequence (P14174 2-115 limits assumed): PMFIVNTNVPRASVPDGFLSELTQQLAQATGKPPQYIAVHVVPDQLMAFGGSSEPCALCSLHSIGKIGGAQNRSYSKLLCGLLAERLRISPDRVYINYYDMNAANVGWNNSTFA
Protocol: MIF tautomerase inhibition assay: MIF tautomerase activity was measured using a UV-Visible spectrophotometer (SHIMADZU, UV1600U). A fresh stock solution of L-dopachrome methyl ester was prepared at 2.4 mM through oxidation of L-3,4-dihydroxyphenylalanine methyl ester with sodium periodate. 1 μL of MIF solution (800-900 μg/mL) and 1 μL of a dimethyl sulfoxide (DMSO) solution with various concentrations of the MIF inhibitor were added into a plastic cuvette (10 mm, 1.5 mL) containing 0.7 mL assay buffer (50 mM potassium phosphate, pH 7.2). Then, activated L-dopachrome methyl ester solution (0.3 mL) was added to the assay buffer mixture. Activity was determined at room temperature and spectrometric measurements were made every 5 sec at λ, =475 nm for total 20 sec, by monitoring the rate of decolorization of L-dopachrome in comparison to a standard solution.

[2] = Stability in buffer (decarboxylation, mass spectrometry); assay type: physicochemical; details: upon formulation in buffer; by mass spectrometry
[3] = Solubility comparison; assay type: physicochemical; details: relative to ISO-66
[4] = system: CT-26 colon tumors; details: administered twice per week (He et al.); cited from earlier work
[5] = system: B16 tumor; details: 80 mg/kg (Yaddanapudi et al.); cited from earlier work

## O=C(O)CC(=O)CC1CC(c2ccc(O)c(F)c2)=NO1 (centres unmarked) [KF III 53Y]
[1]
  IC50: 1800 nM
[2]
  stability (decarboxylation to ISO-66): spontaneously decarboxylates to form ISO-66; also recorded: undergoes fast decarboxlyation to form ISO-66; also recorded: spontaneously decarboxylated non-enzymatically
[3]
  solubility: better solubility than ISO-66

## COC(=O)CC1CC(c2ccc(O)cc2)=NO1 (centres unmarked) [ISO-1]
[4]
  inhibition of CT-26 colon tumors: 25%

## Ic1cc(-c2ccccc2)ncn1 [4-IPP]
[5]
  effect on rate of B16 tumor growth: significantly slowed the rate of B16 tumor growth
